From patent publication US20230023559A1, “ARYLMETHYLENE HETEROCYCLIC COMPOUNDS AS KV1.3 POTASSIUM SHAKER CHANNEL BLOCKERS” (D. E. Shaw Research, LLC, priority 2019, published 2023) come the findings set out here.

In one experiment the target is T1, Kv1.3 potassium channel (Homo sapiens, UniProt P22001).
T1 construct: expressed in transfected cells
The experiment is described as follows: Kv1.3 potassium channel blocker activity, automated whole-cell patch clamp (Patchliner). In kind it is cell-based. The note with it: CHO-K1 cells stably expressing Kv1.3; whole cell current inhibition; read-out: Kv1.3_IC50. An outline of the steps:
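CHO-K1 cells stably expressing Kv1.3, automated whole-cell patch clamp. Currents evoked by 100 ms steps from −90 mV holding to +40 mV at 0.1 Hz, sampled at 10 kHz unfiltered, P/4 leak subtraction; peak current inhibition measured, compound incubation ≤10 s between pulse trains.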
(In general: Patch clamp records ionic current or voltage across a cell membrane.)

Another experiment has as its target hERG channel (Homo sapiens, UniProt Q12809). The experiment is described as follows: hERG electrophysiology, automated whole-cell patch clamp (Patchliner).

Chain of hERG channel (Q12809 whole entry): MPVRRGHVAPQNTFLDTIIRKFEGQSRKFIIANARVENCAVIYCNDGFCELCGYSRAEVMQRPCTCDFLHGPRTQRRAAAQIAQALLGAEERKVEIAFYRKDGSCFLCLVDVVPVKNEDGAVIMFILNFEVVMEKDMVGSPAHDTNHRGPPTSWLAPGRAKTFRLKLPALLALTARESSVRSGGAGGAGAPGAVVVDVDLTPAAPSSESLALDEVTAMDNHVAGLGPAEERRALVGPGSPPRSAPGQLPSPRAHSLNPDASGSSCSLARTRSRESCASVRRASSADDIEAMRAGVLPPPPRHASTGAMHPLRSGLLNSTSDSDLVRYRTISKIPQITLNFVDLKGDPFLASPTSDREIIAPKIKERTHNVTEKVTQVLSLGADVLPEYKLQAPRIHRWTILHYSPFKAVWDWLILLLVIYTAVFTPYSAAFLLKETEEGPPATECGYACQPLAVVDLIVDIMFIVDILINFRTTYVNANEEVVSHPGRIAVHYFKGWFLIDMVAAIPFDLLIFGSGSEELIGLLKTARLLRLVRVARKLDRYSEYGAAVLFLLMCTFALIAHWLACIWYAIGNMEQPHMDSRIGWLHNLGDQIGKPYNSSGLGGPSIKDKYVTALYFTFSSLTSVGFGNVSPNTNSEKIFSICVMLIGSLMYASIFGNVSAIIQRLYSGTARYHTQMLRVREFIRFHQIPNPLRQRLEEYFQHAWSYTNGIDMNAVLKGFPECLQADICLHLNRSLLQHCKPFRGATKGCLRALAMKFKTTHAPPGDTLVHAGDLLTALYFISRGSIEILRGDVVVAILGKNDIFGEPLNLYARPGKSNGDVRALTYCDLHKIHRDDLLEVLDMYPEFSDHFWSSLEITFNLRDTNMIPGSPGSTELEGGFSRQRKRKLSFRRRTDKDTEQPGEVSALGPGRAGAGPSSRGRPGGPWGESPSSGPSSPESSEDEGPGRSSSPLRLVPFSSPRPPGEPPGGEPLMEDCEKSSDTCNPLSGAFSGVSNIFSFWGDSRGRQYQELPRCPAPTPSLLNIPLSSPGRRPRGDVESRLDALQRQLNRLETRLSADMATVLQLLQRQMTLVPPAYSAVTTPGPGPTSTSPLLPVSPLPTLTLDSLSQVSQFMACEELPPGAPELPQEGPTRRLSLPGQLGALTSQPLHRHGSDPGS
T1 sequence (P22001 whole entry): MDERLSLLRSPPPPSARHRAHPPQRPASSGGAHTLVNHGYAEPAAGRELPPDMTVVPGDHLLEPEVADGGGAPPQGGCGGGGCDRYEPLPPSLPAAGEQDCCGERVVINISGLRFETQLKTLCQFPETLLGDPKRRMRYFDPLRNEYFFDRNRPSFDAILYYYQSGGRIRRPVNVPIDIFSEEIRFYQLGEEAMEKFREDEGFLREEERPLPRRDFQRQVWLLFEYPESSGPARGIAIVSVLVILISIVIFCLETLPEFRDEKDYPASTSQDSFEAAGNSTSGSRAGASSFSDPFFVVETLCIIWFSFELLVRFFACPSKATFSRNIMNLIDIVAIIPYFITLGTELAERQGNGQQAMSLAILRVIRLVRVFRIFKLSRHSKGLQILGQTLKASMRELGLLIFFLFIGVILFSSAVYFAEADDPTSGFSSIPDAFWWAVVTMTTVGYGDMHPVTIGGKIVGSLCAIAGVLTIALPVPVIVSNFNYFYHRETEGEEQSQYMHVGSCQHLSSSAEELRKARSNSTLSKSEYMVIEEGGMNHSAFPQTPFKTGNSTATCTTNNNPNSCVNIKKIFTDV
Method for hERG channel: CHO-K1 cells stably expressing hERG were grown in Ham's F-12 Medium with Glutamine containing 10% heat-inactivated FBS, 1% Penicillin/Streptomycin, Hygromycin (100 μg/ml) and G418 (100 μg/ml). Cells were grown in culture flasks at 37° C. in a 5% CO2-humidified incubator.
The cells were bathed in an extracellular solution containing 140 mM NaCl, 4 mM KCl, 2 mM CaCl2), 1 mM MgCl2, 5 mM Glucose, 10 mM HEPES; pH adjusted to 7.4 with NaOH; 295-305 mOsm. The internal solution contained 50 mM KCl, 10 mM NaCl, 60 mM KF, 20 mM EGTA, 10 mM HEPES; pH adjusted to 7.2 with KOH; 285 mOsm. All compounds were dissolved in DMSO at 30 mM. Compound stock solutions were freshly diluted with external solution to concentrations of 30 nM, 100 nM, 300 nM, 1 μM, 3 μM, 10 μM, 30 μM and 100 μM. The highest content of DMSO (0.3%) was present in 100 μM.
The voltage protocol (see Table B) was designed to simulate voltage changes during a cardiac action potential with a 300 ms depolarization to +20 mV (analogous to the plateau phase of the cardiac action potential), a repolarization for 300 ms to −50 mV (inducing a tail current) and a final step to the holding potential of −80 mV. The pulse frequency was 0.3 Hz. Control (compound-free) and compound pulse trains for each compound concentration applied contained 70 pulses.
Whole cell current recordings and compound application were enabled by means of an automated patch clamp platform Patchliner (Nanion). EPC 10 patch clamp amplifier (HEKA) along with Patchmaster software (HEKA Elektronik Dr. Schulze GmbH) was used for data acquisition. Data were sampled at 10 kHz without filtering. Increasing compound concentrations were applied consecutively to the same cell without washouts in between.
AUC and PEAK values were obtained with Patchmaster (HEKA Elektronik Dr. Schulze GmbH). To determine IC50 the last single pulse in the pulse train corresponding to a given compound concentration was used. Obtained AUC and PEAK values in the presence of compound were normalized to control values in the absence of compound. Using Origin (OridinLab), IC50 was derived from data fit to Hill equation: Icompound/Icontrol=(100−A)/(1+([compound]/IC50)nH)+A, where IC50 is the concentration at which current inhibition is half-maximal, [compound] is the applied compound concentration, A is the fraction of current that is not blocked and nH is the Hill coefficient.

On to `O=C([C@@H]1CCNC1)N1CCC([C@@H](O)c2cc(Cl)c(Cl)cc2O)CC1` (single isomer, unassigned) [Compound 116], for which the IC50 (commonly the midpoint of a concentration-inhibition curve) on Kv1.3 potassium channel was < 0.5 µM; at hERG channel it was > 30 µM.
Consider `N[C@@H](c1cc(Cl)c(Cl)cc1O)C1CCN(C(=O)[C@H]2C[C@@H](O)C2)CC1` [Compound 138, 2-[(R)-amino([1-[(1S,3S)-3-hydroxycyclo-butanecarbonyl]piperidin-4-yl])methyl]-4,5-dichlorophenol trifluoroacetic acid], for which the figures for the IC50 at Kv1.3 potassium channel and on hERG channel were < 10 µM and > 30 µM, respectively.
On the same counts, the results for `N[C@@H](c1c(O)cc(Cl)c(Cl)c1F)C1CCN(C(=O)[C@H](O)CO)CC1` [Compound 291, (R)-1-(4-((R)-amino(3,4-dichloro-2-fluoro-6-hydroxyphenyl)methyl)piperidin-1-yl)-2,3-dihydroxypropan-1-one] are < 0.5 µM and > 30 µM.
With `CC(=O)N1CCC(C(O)c2cc(Cl)c(Cl)cc2O)CC1` (centres unmarked) [Compound 4, 1-(4-((4,5-dichloro-2-hydroxyphenyl)(hydroxy)methyl)piperidin-1-yl)ethanone], the IC50 on Kv1.3 potassium channel was < 10 µM; against hERG channel, > 30 µM.
In the case of `CC1(O)CC(C(=O)N2CCC([C@@H](N)c3cc(Cl)c(Cl)cc3O)CC2)C1` (stereo partly drawn) [Compound 163, 2-[(R)-amino[1-(3-hydroxy-3-methylcyclo-butanecarbonyl)piperidin-4-yl]methyl]-4,5-dichlorophenol], the IC50 is < 10 µM at Kv1.3 potassium channel and > 30 µM at hERG channel.
`N[C@@H](c1cc(Cl)c(Cl)cc1O)C1CCN(C(=O)[C@H]2CNC(=O)OC2)CC1` (single isomer, unassigned; isomer 1) [Compound 338]: the IC50 at Kv1.3 potassium channel was < 0.5 µM; against hERG channel it was > 30 µM.
On the same counts, the results for `Cc1cc(O)c([C@H](N)C2CCN(C(=O)[C@H](O)CO)CC2)cc1C` [Compound 293, (2R)-1-[4-[(R)-amino(2-hydroxy-4,5-dimethylphenyl)methyl]piperidin-1-yl]-2,3-dihydroxypropan-1-one Trifluoroacetic Acid] are < 0.5 µM and > 30 µM.
For the molecule `N[C@@H](c1cc(Cl)c(Cl)cc1O)C1CCN(C(=O)[C@H]2CCC(=O)N2)CC1` [Compound 165, (5R)-5-[4-[(R)-amino(4,5-dichloro-2-hydroxyphenyl)methyl]piperidine-1-carbonyl] pyrrolidin-2-one trifluoroacetic acid], the IC50 at Kv1.3 potassium channel was < 0.5 µM; on hERG channel it was > 30 µM.
For `CN1C(=O)CC[C@@H]1C(=O)N1CCC([C@@H](N)c2cc(Cl)c(Cl)cc2O)CC1` [Compound 216, (5R)-5-[4-[(R)-amino(4,5-dichloro-2-hydroxyphenyl)methyl]piperidine-1-carbonyl]-1-methylpyrrolidin-2-one], in that order: < 10 µM and > 30 µM.
With `CO[C@@H](CO)C(=O)N1CCC([C@@H](N)c2cc(Cl)c(Cl)cc2O)CC1` [Compound 185, (2S)-1-[4-[(R)-amino(4,5-dichloro-2-hydroxyphenyl)methyl]piperidin-1-yl]-3-hydroxy-2-methoxypropan-1-one trifluoroacetic acid], the IC50 on Kv1.3 potassium channel is < 10 µM; on hERG channel, > 30 µM.
As for `NC(c1cc(Cl)c(Cl)cc1O)C1CCN(C(=O)c2ccccc2)CC1` (centres unmarked) [Compound 68, 2-[amino(1-benzoylpiperidin-4-yl)methyl]-4,5-dichlorophenol Trifluoroacetic Acid], the half-maximal inhibitory concentration (IC50) is < 10 µM on Kv1.3 potassium channel and < 30 µM against hERG channel.
In the case of `N[C@@H](c1c(O)cc(Cl)c(Cl)c1Cl)C1CCNCC1` (single isomer, unassigned) [Compound 61, Trifluoroacetic Acid], the values for the IC50 at Kv1.3 potassium channel and against hERG channel were < 10 µM and > 30 µM, respectively.
For `N[C@@H](c1cc(Cl)c(Cl)cc1O)C1CCN(S(=O)(=O)C2CCNC2)CC1` (stereo partly drawn) [Compound 110, 2-[(R)-amino[1-(pyrrolidine-3-sulfonyl)piperidin-4-yl]methyl]-4,5-dichlorophenol], in that order: < 0.5 µM and > 30 µM.
